Test results from patent publication US20170274032A1, “PHARMACEUTICAL COMPOSITIONS FOR TREATING ANXIETY” (Beijing Wonner Biotech. Ltd. Co., priority 2007, published 2017).

Experiments:
[1] = in the human body; cited from earlier work
[2] = tested on: Kunming (KM) mice; test: Mouse light-dark transition experiment (Experiment 1); format: in vivo
Text: 1.1 Experimental animals: Kunming (KM) mice, male, 24˜26 g of body weight, secondary, are provided by the Experimental Animal Science Department of Capital Medical University, Beijing.
1.2 Experimental pharmaceuticals: The pharmaceutical of Embodiment 1 is provided by Beijing Wonner Biotech. Ltd. Co., and Diazepam is the product of Tianjin Jinhuei Amino Acid Co. Ltd.
1.3 Experimental equipment: Self-made light-dark transition box.
1.5.1 Group division and administration of drug: The mice are grouped randomly as 5 groups, and 10 mice are in each group. 1. High dose of Embodiment 1 (80 mg/kg); 2. middle dose of Embodiment 1 (40 mg/kg); 3. low dose of Embodiment 1 (20 mg/kg); 4. Diazepam (2.5 mg/kg); and 5. physiological saline (normal saline, NS). […]
(§1) Mouse light-dark transition test: The dark chamber occupies one third of the light-dark transition chamber (44 cm×21 cm×21 cm), and the top is capped. […] The times that the mouse enters into the dark chamber and returns to the light chamber within 10 minutes are determined, and the times thereof are the index for evaluating the anti-anxiety function of the drugs.
1.5.3 Statistic calculation: The experimental data are represented as X±SD, and the experimental result is calculated as one-way analysis of variance (one-way ANOVA) by SPSS 11.5 statistic software.

[3] = tested on: Kunming (KM) mice; test: Mouse light-dark transition experiment (Experiment 2); format: in vivo
Procedure: 2.1 Experimental animals: Kunming (KM) mice, male, 24˜26 g of body weight, secondary, are provided by the Experimental Animal Science Department of Capital Medical University, Beijing.
2.2 Experimental pharmaceuticals: The pharmaceutical of Embodiment 4 is provided by Beijing Wonner Biotech. Ltd. Co., and Diazepam is the product of Tianjin Jinhuei Amino Acid Co. Ltd.
2.3 Experimental equipment: Self-made light-dark transition box.
2.4 Dose designs: 1. High dose of Embodiment 4 (80 mg/kg/d); 2. middle dose of Embodiment 4 (40 mg/kg/d); and 3. low dose of Embodiment 4 (20 mg/kg/d).
2.5.1 Group division and administration of drug: The mice are grouped randomly as 5 groups, and 10 mice are in each group. 1. High dose of Embodiment 4 (80 mg/kg); 2. middle dose of Embodiment 4 (40 mg/kg); 3. low dose of Embodiment 4 (20 mg/kg); 4. […]
as §1
2.5.3 Statistic calculation: The experimental data are represented as X±SD, and the experimental result is calculated as one-way ANOVA by SPSS 11.5 statistic software.

[4] = 2.5 mg/kg, fed into the stomach once daily for 7 days, test 1 hour after last administration, within 10 minutes, X±SD, 10 mice

Structure (SMILES): CC1(C)[C@@H](O[C@H]2O[C@H](C(=O)O)[C@@H](O)[C@H](O)[C@H]2O[C@@H]2O[C@H](C(=O)O)[C@@H](O)[C@H](O)[C@H]2O)CC[C@]2(C)[C@H]3C(=O)C=C4[C@@H]5C[C@@](C)(C(=O)O)CC[C@]5(C)CC[C@@]4(C)[C@]3(C)CC[C@@H]12 [glycyrrhizic acid]
- Efficiency of conversion of glycyrrhizic acid to glycyrrhetinic acid [1]: ~100%

Structure (SMILES): CN1C(=O)CN=C(c2ccccc2)c2cc(Cl)ccc21 [Diazepam]
- Times of passing from dark chamber to light chamber [2, 4]: 11.3 ± 4.54
- Effect on the times that the mouse passes from the dark chamber to the light chamber, in words ([2]; compared with physiological saline, high, middle and low doses of Embodiment 1, Diazepam 2.5 mg/kg): significantly increase
- Times of passing from dark chamber to light chamber [3, 4]: 11.7 ± 4.47
- Effect on the times that the mouse passes from the dark chamber to the light chamber, in words ([3]; compared with normal saline, high, middle and low doses of Embodiment 4, Diazepam 2.5 mg/kg): significantly increase
